Broadly, the melting point is the temperature, or range, at which the solid turns liquid. As usually defined, the inhibition is the percentage by which the read-out fell short of the control.

In data set [1] the test system is Normal human HEPM fibroblasts. Kind of data set: Cell Mat assay: inhibition of normal cell growth. It counts as cell-based. The note with it: Homo sapiens, Fibroblast, mIC50, normal cell monolayer. The method, then:
(§1) Normal human HEPM fibroblasts were planted in 3.5 cm dishes at a density of 5×10^4 cells/dish in 2 ml growth medium, and incubated for 3-5 d to achieve confluence. Medium was aspirated from each dish and the indicator tumor cells, T24-BAG4 human bladder carcinoma cells expressing an activated H-ras gene, were planted on top of the fibroblast monolayer at a density of 2×10^3cells/dish in 2 ml growth medium, and allowed to attach overnight. Compound-induced colony inhibition was assayed by addition of serial dilutions of compound directly to the growth medium 24 h after tumor cell planting, and incubating cells for an additional 14 d to allow colony formation. Assays were terminated by rinsing monolayers twice with phosphate-buffered saline (PBS), fixing the monolayers with a 1% glutaraldehyde solution in PBS, then visualizing tumor cells by staining with X-Gal (Price, J., et al., Lineage analysis in the vertebrate nervous system by retrovirus-mediated gene transfer, Proc. Natl. Acad. Sci.84, 156-160(1987)). […] Both IC50 values were obtained by determining the density of tumor cells and mat cells by visual inspection and enumeration of cells per colony and the number of colonies under the microscope. The therapeutic index of the compound was quantitatively expressed as the ratio of mIC50/tIC50, with values greater than one indicative of tumor target specificity.

Data set [2] deals with Ras-CVLS processing in COS monkey kidney cells. Kind of data set: Cell-based assay: Ras-CVLS processing in transfected COS cells (immunoblot). To be noted: Primates; inhibition of Ras-CVLS processing in Ras-transfected COS cells. From the text:
2. Cell-Based Assay: Transient expression of val^12-Ha-Ras-CVLS and val^12-Ha-Ras-CVLL in COS monkey kidney cells: Effect of farnesyl protein transferase inhibitors on Ras processing and on disordered cell growth induced by transforming Ras.
COS monkey kidney cells were transfected by electroporation with the plasmid pSV-SPORT (Gibco/BRL) containing a cDNA insert encoding either Ras-CVLS or Ras-CVLL, leading to transient overexpression of a Ras substrate for either farnesyl protein transferase or geranylgeranyl protein transferase I, respectively (see above).
Following electroporation, cells were plated into 6-well tissue culture dishes containing 1.5 ml of Dulbecco's-modified Eagle's media (GIBCO, Inc.) supplemented with 10% fetal calf serum and the appropriate farnesyl protein transferase inhibitors. After 24 hours, media was removed and fresh media containing the appropriate drugs was re-added.
48 hours after electroporation cells were examined under the microscope to monitor disordered cell growth induced by transforming Ras. Cells expressing transforming Ras become more rounded and refractile and overgrow the monolayer, reminiscent of the transformed phenotype. Cells were then photographed, washed twice with 1 ml of cold phosphate-buffered saline (PBS) and removed from the dish by scraping with a rubber policeman into 1 ml of a buffer containing 25 mM Tris, pH 8.0; 1 mM ethylenediamine tetraacetic acid; 1 mM phenylmethylsulfonyl fluoride; 50 μM leupeptin; and 0.1 μM pepstatin. Cells were lysed by homogenization and cell debris was removed by centrifugation at 2000×g for 10 min.
Cellular protein was precipitated by addition of ice-cold trichloroacetic acid and redissolved in 100 μl of SDS-electrophoresis sample buffer. Samples (5-10 μl) were loaded onto 14% polyacrylamide minigels (Novex, Inc.) and electrophoresed until the tracking dye neared the bottom of the gel. Proteins resolved on the gels were electroblotted onto nitrocellulose membranes for immunodetection.
Membranes were blocked by incubation overnight at 4° C. in PBS containing 2.5% dried milk and 0.5% Tween-20 and then incubated with a Ras-specific monoclonal antibody, Y13-259 (Furth, M. E., et al., (1982), Monoclonal antibodies to the p21 products of the transforming gene of Harvey murine sarcome virus and of the cellular ras gene family, J. Virol. 43: 294-304), in PBS containing 1% fetal calf serum for one hour at room temperature. After washing, membranes were incubated for one hour at room temperature with a 1:5000 dilution of secondary antibody, rabbit anti-rat IgG conjugated to horseradish peroxidase, in PBS containing 1% fetal calf serum. The presence of processed and unprocessed Ras-CVLS or Ras-CVLL was detected using a calorimetric peroxidase reagent (4-chloro-1-naphthol) as described by the manufacturer (Bio-Rad).

Data set [3] addresses T1, geranylgeranyl protein transferase (GGPT) I (Rattus norvegicus, UniProt P53610+Q04631).
T1 construct: were partially purified from rat brain by ammonium sulfate fractionation followed by Q-Sepharose; from tissue; host or cells: rat brain
As to the kind of experiment: In vitro enzyme assay: inhibition of geranylgeranyl protein transferase I. In kind it is biochemical. An excerpt: (§2) 1. In vitro enzyme assays: Inhibition of farnesyl protein transferase and geranylgeranyl protein transferase.
Both farnesyl protein transferase (FPT) and geranylgeranyl protein transferase (GGPT) I were partially purified from rat brain by ammonium sulfate fractionation followed by Q-Sepharose (Pharmacia, Inc.) anion exchange chromatography essentially as described by Yokoyama et al (Yokoyama, K., et al., (1991). A protein geranylgeranyltransferase from bovine brain: Implications for protein prenylation specificity, Proc. Natl. Acad. Sci USA 88: 5302-5306, the disclosure of which is incorporated herein by reference thereto). Human farnesyl protein transferase was also expressed in E. coli, using cDNA clones encoding both the α and β subunits. The methods used were similar to those published (Omer, C. et al., (1993), Characterization of recombinant human farnesyl protein transferase: Cloning, expression, farnesyl diphosphate binding, and functional homology with yeast prenyl-protein transferase, Biochemistry 32:5167-5176). Human farnesyl protein transferase was partially-purified from the soluble protein fraction of E. coli as described above. the tricyclic farnesyl protein transferase inhibitors disclosed herein inhibited both human and rat enzyme with similar potencies. Two forms of val^12-Ha-Ras protein were prepared as substrates for these enzymes, differing in their carboxy terminal sequence. One form terminated in cysteine-valine-leucine-serine (Ras-CVLS) the other in cystein-valine-leucine-leucine (Ras-CVLL). Ras-CVLS is a substrate for the farnesyl protein transferase while Ras-CVLL is a substrate for geranylgeranyl protein transferase I. The cDNAs encoding these proteins were constructed so that the proteins contain an amino-terminal extension of 6 histidine residues. Both proteins were expressed in Escherichia coli and purified using metal chelate affinity chromatography. The radiolabelled isoprenyl pyrophosphate substrates, [^3H]farnesyl pyrophosphate and [^3H]geranylgeranyl pyrophosphate, were purchased from DuPont/New England Nuclear.
The geranylgeranyl protein transferase I assay was essentially identical to the farnesyl protein transferase assay described above, with two exceptions: [^3H]geranylgeranylpyrophosphate replaced farnesyl pyrophosphate as the isoprenoid donor and Ras-CVLL was the protein acceptor. This is similar to the assay reported by Casey et al (Casey, P. J., et al., (1991), Enzymatic modification of proteins with a geranylgeranyl isoprenoid, Proc. Natl. Acad. Sci, USA 88: 8631-8635, the disclosure of which is incorporated herein by reference thereto).

Data set [4] concerns the target T2, farnesyl protein transferase (FPT) (Rattus norvegicus, UniProt Q02293+Q04631).
T2 construct: were partially purified from rat brain by ammonium sulfate fractionation followed by Q-Sepharose; from tissue; host or cells: rat brain
Kind of data set: In vitro enzyme assay: inhibition of farnesyl protein transferase. It counts as biochemical. How it is done: as §2
Human farnesyl protein transferase was also expressed in E. coli, using cDNA clones encoding both the α and β subunits. […] Two forms of val^12-Ha-Ras protein were prepared as substrates for these enzymes, differing in their carboxy terminal sequence. One form terminated in cysteine-valine-leucine-serine (Ras-CVLS) the other in cystein-valine-leucine-leucine (Ras-CVLL). Ras-CVLS is a substrate for the farnesyl protein transferase while Ras-CVLL is a substrate for geranylgeranyl protein transferase I. The cDNAs encoding these proteins were constructed so that the proteins contain an amino-terminal extension of 6 histidine residues. Both proteins were expressed in Escherichia coli and purified using metal chelate affinity chromatography. The radiolabelled isoprenyl pyrophosphate substrates, [^3H]farnesyl pyrophosphate and [^3H]geranylgeranyl pyrophosphate, were purchased from DuPont/New England Nuclear.
The reaction was allowed to proceed for 30 minutes at room temperature and then stopped with 0.5 ml of 4% sodium dodecyl sulfate (SDS) followed by 0.5 ml of cold 30% trichloracetic acid (TCA). Samples were allowed to sit on ice for 45 minutes and precipitated Ras protein was then collected on GF/C filter paper mats using a Brandel cell harvester. […] Percent inhibition was calculated relative to the DMSO vehicle control.

The test system of data set [5] is T24-BAG4 human bladder carcinoma cells expressing an activated H-ras gene. Kind of data set: Cell Mat assay: inhibition of tumor cell growth. In kind it is cell-based. The note with it: for IC50: tIC50. The method, then:
as §1

Where [6] appears, read: Ras-CVLS farnesylation, partially purified rat brain FPT, read-out: FPT IC50.

Molecules are shown by their SMILES. Like-named read-outs stand apart in the source and are kept apart here. Some results are limits rather than exact numbers.

Compound `CCOC(=O)N1CCC(C2c3ccc(Cl)cc3C=Cc3ccc[n+]([O-])c32)CC1` (stereo not shown) registered a melting point of 78.6 to 89.4 °C.

For `O=C(Oc1cccnc1)N1CCC(C2c3ccc(Cl)cc3C=Cc3cccnc32)CC1` (stereo not shown), the melting point lay in the range of 102.1 to 103.9 °C.

In the case of `CCSC(=O)N1CCC(=C2c3ccc(Cl)cc3CCc3cccnc32)CC1` [Compound 500.00], the IC50 in data set [1] worked out at 25 µM; in data set [2], 22 µM; in data set [4] (setting [6]), 1.6 µM; in data set [5] (Homo sapiens), 25 µM. The “selective for FPT inhibition (versus GGPT)” value in data set [3] (FPT versus GGPT) was “at least 31 fold”. Besides, the inhibition at 50 µM in data set [3] (at 50 μM) is 7%. The “selective antiproliferative activity against Ras-transformed cells versus normal cells” value (“selective antiproliferative activity” for short) in data set [5] was “no”.

Consider `CCOC(=O)N1CCN(C2c3ccc(Cl)cc3CCc3cccnc32)CC1` (stereo not shown) [Compound 550.00, Ethyl 4-(8-chloro-6,11-dihydro-11H-benzo[5,6]cyclohepta[1,2-b]pyridin-11-yl)-1-piperazinecarboxylate], for which the IC50 in data set [1] is more than 50 µM; in data set [2], more than 20 µM; in data set [4] (setting [6]), 7.2 µM; in data set [5] (Homo sapiens), 18 µM; in data set [5], 25 µM.

As to `O=C(Oc1ccccc1)N1CCC(=C2c3ccc(Cl)cc3CCc3cccnc32)CC1` [Compound 565.00], the IC50 in data set [2] came to 6.7 µM; in data set [4] (setting [6]), 0.84 µM.

For `CC(C)COC(=O)N1CCC(=C2c3ccc(Cl)cc3CCc3cccnc32)CC1` [Compound 575.00], the IC50 was more than 50 µM in data set [1], 9.9 µM in data set [2], 4.4 µM in data set [4] (setting [6]) and 37 µM in data set [5] (Homo sapiens).

`O=C(Sc1ccccc1)N1CCC(=C2c3ccc(Cl)cc3CCc3cccnc32)CC1` [Compound 595.00, 4-(8-chloro-5,6-dihydro-11H-benzo[5,6]cyclohepta[1,2-b]-pyridin-11ylidene)-1-piperinecarbothioic Acid, S-phenyl Ester] had a melting point of 175 to 177 °C. Besides, the IC50 in data set [1] was more than 50 µM. The compound also came in with an IC50 in data set [2] of 5.1 µM. This compound gave an IC50 in data set [5] (Homo sapiens) of 18 µM.

Turning to `O=C(Oc1cccnc1)N1CCN([C@@H]2c3ccc(Cl)cc3CCc3cccnc32)CC1` [Compound 600.00, (+) 3-pyridyl 4-(8-chloro-6,11-dihydro-5H-benzo[5,6]-cyclohepta[1,2-b]pyridin-11(R)-yl)-1-piperazine Carboxylate], the IC50 in data set [1] was 50 µM; in data set [2], 6.9 µM; in data set [4], 1.28 µM; in data set [5] (Homo sapiens) it was 12.5 µM.

As for `O=C(Oc1cccnc1)N1CCN([C@H]2c3ccc(Cl)cc3CCc3cccnc32)CC1` [Compound 608.00, (−) 3-pyridyl 4-(8-chloro-6,11-dihydro-5H-benzo[5,6]-cyclohepta[1,2-b]pyridin-11(S)-yl)-1-piperazinecarboxylate], the IC50 was more than 50 µM in data set [1], 3.9 µM in data set [2], 0.82 µM in data set [4] and 37 µM in data set [5] (Homo sapiens).

Consider `O=C(Oc1cccnc1)N1CCN(C2c3ccc(Cl)cc3CCc3cccnc32)CC1` (stereo not shown) [Compound 610.00, 3-pyridyl 4-(8-chloro-6,11-dihydro-5H-benzo[5,6]-cyclohepta[1,2-b]pyridin-11-yl)-1-piperazinecarboxylate], for which the values for the IC50 in data set [2] and in data set [4] were 3 µM and 0.5 µM, respectively.

Consider `O=C(Oc1ccccc1)N1CCN(C2c3ccc(Cl)cc3CCc3cccnc32)CC1` (stereo not shown) [Compound 612.00], for which the IC50 is more than 50 µM in data set [1], 4.8 µM in data set [2], 0.8 µM in data set [4] and 50 µM in data set [5] (Homo sapiens). In addition, the “selective antiproliferative activity” value in data set [5] was “little”.

On to `CCOC(=O)N1CCC(C2c3ccc(Cl)cc3CCc3cccnc32)CC1` (stereo not shown) [Compound 618.00], for which the IC50 in data set [1] was more than 50 µM; in data set [2] it was 20.5 µM; in data set [3] (Ras-CVLL as acceptor, read-out: GGPT IC 50) it was more than 50 µM; in data set [4] (setting [6]), 1.22 µM; in data set [5] (Homo sapiens), more than 50 µM. For the same compound, the “selective antiproliferative activity” value in data set [5] was “little”.

Take `CCOC(=O)N1CCC(=C2c3ccc(Cl)cc3CCc3c(On4nnc5ccccc54)ccnc32)CC1` [Compound 654.00, Ethyl 4-[4-[(1H-benzotriazol-1-yl)oxy]-8-chloro-5,6-dihydro-11H-benzo[5,6]cyclohepta[1,2-b]pyridin-11-ylidene]-1-piperidine Carbamate]: the melting point was in the range of 181.5 to 183.9 °C. For the same compound, the IC50 in data set [4] (setting [6]) came to 11.6 µM.

With `CN1CCC(OC(=O)N2CCN(C3c4ccc(Cl)cc4CCc4cc(Br)cnc43)CC2)CC1` (stereo not shown) [Compound 803.00], the results for the IC50 in data set [2] and in data set [4] (setting [6]) were more than 5 µM and 0.31 µM, respectively.
